Consider twelve compounds from ChEMBL document CHEMBL3868608, “Discovery of 1,3-diethyl-7-methyl-8-(phenoxymethyl)-xanthine derivatives as novel adenosine A1 and A2A receptor antagonists” (Bioorg Med Chem Lett, 2016).

Assay [1] concerns brain. Nature of the assay: Selectivity index, ratio of Ki for adenosine receptor A2A in Sprague-Dawley rat striatal membranes to Ki for adenosine receptor A1 in Sprague-Dawley rat whole brain cell membranes. The class given is cell-based.
The target of assay [2] is T1, Adenosine receptor A2a (Rattus norvegicus, UniProt P30543). Nature of the assay: Displacement of [3H]NECA from adenosine receptor A2A in Sprague-Dawley rat striatal membranes after 60 mins by liquid scintillation counting. Also on record: species or system Striatum, Membrane. (In general: Loss of bound radioactivity is the signal in a displacement assay; it reports binding, not function.)
T1 sequence (P30543 whole entry): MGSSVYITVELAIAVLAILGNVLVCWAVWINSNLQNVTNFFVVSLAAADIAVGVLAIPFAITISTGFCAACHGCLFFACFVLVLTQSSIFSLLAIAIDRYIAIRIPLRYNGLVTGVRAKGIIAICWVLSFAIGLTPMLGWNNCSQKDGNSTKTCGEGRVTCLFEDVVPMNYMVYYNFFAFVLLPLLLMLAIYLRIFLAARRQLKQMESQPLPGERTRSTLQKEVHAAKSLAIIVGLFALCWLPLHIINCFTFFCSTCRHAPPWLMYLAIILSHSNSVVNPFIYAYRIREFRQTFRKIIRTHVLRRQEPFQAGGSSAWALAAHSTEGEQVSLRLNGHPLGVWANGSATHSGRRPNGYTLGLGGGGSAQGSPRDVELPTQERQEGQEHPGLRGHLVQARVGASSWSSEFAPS

Assay [3] concerns the target T2, Adenosine receptor A1 (Rattus norvegicus, UniProt P25099).
T2 sequence (P25099 whole entry): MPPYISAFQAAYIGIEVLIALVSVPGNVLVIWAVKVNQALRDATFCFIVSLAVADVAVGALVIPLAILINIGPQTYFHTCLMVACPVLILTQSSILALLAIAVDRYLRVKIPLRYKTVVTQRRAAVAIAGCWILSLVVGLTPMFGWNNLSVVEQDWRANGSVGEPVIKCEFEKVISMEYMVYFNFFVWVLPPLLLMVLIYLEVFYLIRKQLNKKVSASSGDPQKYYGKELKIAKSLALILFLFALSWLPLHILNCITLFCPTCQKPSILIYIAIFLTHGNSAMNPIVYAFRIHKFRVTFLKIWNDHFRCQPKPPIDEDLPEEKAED
Nature of the assay: Displacement of [3H]DPCPX from adenosine receptor A1 in Sprague-Dawley rat whole brain cell membranes after 60 mins by liquid scintillation counting.

Assay [4] concerns the target T1, Adenosine receptor A2a. The assay is described as follows: Displacement of [3H]NECA from adenosine receptor A2A in rat striatal membranes.
Assay [5] deals with T2, Adenosine receptor A1. Nature of the assay: Displacement of [3H]DPCPX from adenosine receptor A1 in Sprague-Dawley rat whole brain membranes after 60 mins in presence of GTP by liquid scintillation counting method. Also on record: species or system Membrane.

By Ki is commonly meant the dissociation constant of the complex between target and ligand, obtained from inhibition or displacement. Turning to `CCn1c(=O)c2c(nc(COc3ccc(Cl)cc3)n2C)n(CC)c1=O`, the Ratio Ki in assay [1] amounted to 1.1. The Ki came to 1.04 µM in assay [2] and 0.974 µM in assay [3].

Turning to `CCn1c(=O)c2c(ncn2C)n(CC)c1=O`, the Ratio Ki in assay [1] is 0.5. In addition, the Ki was 2.69 µM in assay [2] and 5.61 µM in assay [3].

For the compound `CCn1c(=O)c2c(nc(COc3ccc(F)cc3)n2C)n(CC)c1=O`, the Ratio Ki in assay [1] amounted to 0.7. Besides, the Ki in assay [2] turned out to be 0.841 µM; in assay [3] it was 1.23 µM.

In the case of `Cn1c(=O)c2c(nc(COc3ccc(Cl)cc3)n2C)n(C)c1=O`, the Ratio Ki in assay [1] is 0.2. Besides, the Ki is 0.94 µM in assay [2] and 5.56 µM in assay [3].

Regarding `CCn1c(=O)c2c(nc(COc3ccc(OC)cc3)n2C)n(CC)c1=O`, the inhibition constant (Ki) was determined as 0.237 µM in assay [4], 0.237 µM in assay [2] and 1.22 µM in assay [3].

Regarding `COc1ccc(OCc2nc3c(c(=O)n(C)c(=O)n3C)n2C)cc1`, the Ratio Ki in assay [1] was determined as 0.5. Further, the inhibitory constant (Ki) in assay [2] was 2.4 µM; in assay [3], 4.67 µM.

Regarding `CCn1c(=O)c2c(nc(COc3ccc(Br)cc3)n2C)n(CC)c1=O`, the inhibition constant (Ki) in assay [2] is 1.36 µM; in assay [5], 0.267 µM; in assay [3], 0.264 µM.

As for `CCn1c(=O)c2c(nc(COc3ccccc3)n2C)n(CC)c1=O`, in assay [5], the inhibitory constant (Ki) was 0.892 µM.

Turning to `Cc1ccc(OCc2nc3c(c(=O)n(C)c(=O)n3C)n2C)cc1`, the Ratio Ki in assay [1] was 0.5. Moreover, the figures for the Ki in assay [2] and in assay [3] were 3.64 µM and 6.76 µM, respectively.

`CCn1c(=O)c2c(nc(COc3ccc(C)cc3)n2C)n(CC)c1=O`: in assay [1], the Ratio Ki was 0.9. The Ki in assay [2] worked out at 1.3 µM; in assay [3], 1.42 µM.

For the compound `Cn1c(=O)c2c(nc(COc3ccc(Br)cc3)n2C)n(C)c1=O`, the Ratio Ki in assay [1] was 0.5. Further, the inhibition constant (Ki) was 1.73 µM in assay [2] and 3.69 µM in assay [3].

In the case of `Cn1c(=O)c2c(nc(COc3ccc(F)cc3)n2C)n(C)c1=O`, in assay [1], the Ratio Ki is 0.3. Moreover, the inhibition constant (Ki) was found to be 2.57 µM in assay [2] and 9.19 µM in assay [3].
